Tests used:
Conditions in all cases: incubation time: 72 h
[1] = system: BT-474; test: drug sensitivity score (DSS), CellTiter-Blue viability (DSS (AUC-based score)); higher = stronger viability inhibition; extreme values may be limits of the assay
Procedure, shortened: (§1)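 Into 384-well plates carrying compound in a 5- or 9-concentration series went 20 µl of breast cancer cell suspension, followed by 72 h of incubation. Adding 2.5 µl CellTiter-Blue per well and incubating 2 h at 37 °C preceded fluorescence measurement at 560/590 nm. After normalisation of each plate to 0.1 % DMSO and a positive kill control, dose-response curves were fitted and the area beneath them taken as the drug sensitivity score.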

[2] = system: BT-549; test: as above
Procedure, shortened: as §1

[3] = system: CAL-120; test: as above
Procedure, shortened: as §1

[4] = system: CAL-148; test: as above
Procedure, shortened: as §1

[5] = system: CAL-51; test: as above
Procedure, shortened: as §1

[6] = system: CAL-85-1; test: as above
Procedure, shortened: as §1

[7] = system: HCC1143; test: as above
Procedure, shortened: as §1

[8] = system: HCC1599; test: as above
Procedure, shortened: as §1

[9] = system: HCC1937; test: as above
Procedure, shortened: as §1

[10] = system: HDQ-P1; test: as above
Procedure, shortened: as §1

[11] = system: Hs578T; test: as above
Procedure, shortened: as §1

[12] = system: MDA-MB-231; test: as above
Procedure, shortened: as §1

[13] = system: MDA-MB-436; test: as above
Procedure, shortened: as §1

[14] = system: MDA-MB-453; test: as above
Procedure, shortened: as §1

[15] = system: MDA-MB-468; test: as above
Procedure, shortened: as §1

[16] = system: MFM-223; test: as above
Procedure, shortened: as §1

[17] = system: SK-BR-3; test: as above
Procedure, shortened: as §1

[18] = system: BT-549; test: drug sensitivity score (DSS), CellTiter-Glo (DSS (AUC-based score)); higher = stronger drug effect (viability inhibition or cytotoxicity); extreme values may be limits of the assay
Procedure, shortened: (§2)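 Normalisation on every plate relied on 0.1 % DMSO and a positive kill control. The plates, 384-well format, held compound at 5 concentrations 10-fold apart across a compound-specific 10,000-fold range, and breast cancer cell lines in 20 µl suspension were incubated on them for 72 h before CellTox Green and then CellTiter-Glo readings. The drug sensitivity score derives from the area under the fitted dose-response curve.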

[19] = system: DU-4475; test: as above
Procedure, shortened: as §2

[20] = system: HCC1599; test: as above
Procedure, shortened: as §2

[21] = system: HDQ-P1; test: as above
Procedure, shortened: as §2

[22] = system: MDA-MB-231; test: as above
Procedure, shortened: as §2

[23] = system: MDA-MB-436; test: as above
Procedure, shortened: as §2

[24] = system: MDA-MB-453; test: as above
Procedure, shortened: as §2

[25] = system: MDA-MB-468; test: as above
Procedure, shortened: as §2

[26] = system: SK-BR-3; test: as above
Procedure, shortened: as §2

| Compound | drug sensitivity score [1] | drug sensitivity score [2] | drug sensitivity score [3] | drug sensitivity score [4] | drug sensitivity score [5] | drug sensitivity score [6] | drug sensitivity score [7] | drug sensitivity score [8] | drug sensitivity score [9] | drug sensitivity score [10] | drug sensitivity score [11] | drug sensitivity score [12] | drug sensitivity score [13] | drug sensitivity score [14] | drug sensitivity score [15] | drug sensitivity score [16] | drug sensitivity score [17] | drug sensitivity score [18] | drug sensitivity score [19] | drug sensitivity score [20] | drug sensitivity score [21] | drug sensitivity score [22] | drug sensitivity score [23] | drug sensitivity score [24] | drug sensitivity score [25] | drug sensitivity score [26] |
| --- | --- | --- | --- | --- | --- | --- | --- | --- | --- | --- | --- | --- | --- | --- | --- | --- | --- | --- | --- | --- | --- | --- | --- | --- | --- | --- |
| O=c1[nH]c(=O)n([C@H]2C[C@H](O)[C@@H](CO)O2)cc1F [Floxuridine] | 0 | 6.97 | 19.1 | 18.3 | 21.3 | 14 | 3.31 | 0.768 | 3.61 | 0 | 9.02 | 8.09 | 10.6 | 4.36 | 17.8 | 0 | 17.9 | 1.93 | 1.58 | 9.95 | 2.32 | 4.12 | 9.72 | 0 | 6.72 | 12 |
| O=c1[nH]cc(F)c(=O)[nH]1 [Fluorouracil] | 0 | 2.25 | 2.97 | 4.79 | 1.79 | 5.28 | 0 | 1.41 | 0 | 0 | 0 | 1.96 | 1.93 | 1.33 | 0.272 | 0 | 8.26 | 0 | 0 | 0 | 0 | 0 | 3.61 | 0 | 0 | 1.79 |
| C[C@@H]1C=C2C(=O)O[C@@H]3CC[C@H](C1)[C@]23O [Galiellalactone] | 2.65 | 10.4 | 0 | 4.5 | 0.94 | 9.4 | 0 | 0 | 5.76 | 2.82 | 0.961 | 9.39 | 6.26 | 8.97 | 6.59 | 2.28 | 6.66 | 2.89 | 0 | 0 | 0 | 0 | 0 | 0 | 6.03 | 0 |
| COC1=C2C[C@@H](C)C[C@H](OC)[C@H](O)[C@@H](C)/C=C(\C)[C@H](OC(N)=O)[C@@H](OC)/C=C\C=C(/C)C(=O)NC(=CC1=O)C2=O [Geldanamycin] | 22.7 | 23.4 | 25.7 | 18.2 | 14.4 | 16.6 | 20.4 | 14.7 | 21.8 | 20.1 | 19.2 | 24.2 | 25 | 23 | 24.1 | 21.8 | 25.2 | 5.68 | 6.88 | 1.53 | 4 | 5.32 | 8.77 | 3.9 | 4.27 | 5.98 |
| Cn1cnc2c(F)c(Nc3ccc(Br)cc3F)c(C(=O)NOCCO)cc21 [MEK-162] | 0 | 0 | 0 | 0 | 0.246 | 0 | 7.86 | 2.32 | 0 | 0 | 0 | 4.22 | 0 | 0 | 0 | 0 | 0 | 0 | 12.5 | 0 | 5.43 | 0 | 0 | 0 | 0 | 0 |
| CCOc1cc2ncc(C#N)c(Nc3ccc(OCc4ccccn4)c(Cl)c3)c2cc1NC(=O)/C=C/CN(C)C [Neratinib] | 0 | 0 | 0 | 0 | 0 | 0 | 0 | 0 | 0 | 0 | 0 | 0 | 0 | 4.42 | 0 | 0 | 0 | 0 | 0 | 0 | 6.58 | 0 | 0 | 8.47 | 4.31 | 24.8 |
| COc1ccc(C2=N[C@@H](c3ccc(Cl)cc3)[C@@H](c3ccc(Cl)cc3)N2C(=O)N2CCNC(=O)C2)c(OC(C)C)c1 [Nutlin-3] | 0 | 0 | 0 | 0 | 2.91 | 0 | 0 | 0 | 0 | 0 | 0 | 0 | 0 | 0 | 0 | 0 | 0 | 0 | 0.984 | 0 | 0 | 0 | 0 | 0.52 | 0 | 0 |
| COC1=CC(c2cc3ccccc3[nH]2)=N/C1=C\c1[nH]c(C)cc1C [Obatoclax] | 15.2 | 16.4 | 25.3 | 4.47 | 7.63 | 8.55 | 9.51 | 7.48 | 25.1 | 15.4 | 16.6 | 21 | 13.7 | 13.8 | 16.6 | 7.09 | 20.1 | 5.4 | 0.576 | 0 | 0 | 7.72 | 1.64 | 2.69 | 3.12 | 1.08 |
| COC(=O)C[C@](O)(CCCC(C)(C)O)C(=O)O[C@@H]1C(OC)=C[C@]23CCCN2CCc2cc4c(cc2[C@H]13)OCO4 [Omacetaxine] | 20.5 | 28.3 | 28.6 | 31.6 | 30.7 | 31.8 | 24.5 | 24.8 | 31.8 | 30.7 | 28.8 | 27.8 | 26.7 | 28.2 | 28.5 | 26.3 | 28.3 | 26.7 | 30.6 | 26.7 | 23.1 | 21.2 | 27 | 16.8 | 27.4 | 23.4 |
| CC(=O)O[C@H]1C(=O)[C@@]2(C)[C@H]([C@H](OC(=O)c3ccccc3)[C@]3(O)C[C@H](OC(=O)[C@H](O)[C@@H](NC(=O)c4ccccc4)c4ccccc4)C(C)=C1C3(C)C)[C@]1(OC(C)=O)CO[C@@H]1C[C@@H]2O [Paclitaxel] | 19 | 24.7 | 22.2 | 21.9 | 19.3 | 18.3 | 17.6 | 3.04 | 22.9 | 20.9 | 24.4 | 21.4 | 15.8 | 22.2 | 16.4 | 15 | 26.6 | 24.3 | 10.4 | 14.2 | 11.5 | 17.3 | 21.1 | 9.73 | 23.5 | 33.6 |
| CC(C)(C)c1cc(NC(=O)Nc2ccc(-c3cn4c(n3)sc3cc(OCCN5CCOCC5)ccc34)cc2)no1 [Quizartinib] | 0 | 3.75 | 0 | 0 | 0 | 0 | 0 | 0.62 | 0 | 0 | 0 | 0 | 0 | 0 | 0 | 0 | 0 | 0 | 0 | 0 | 0 | 0 | 0 | 0 | 0 | 0 |
| O=C(c1ccc(OCCN2CCCCC2)cc1)c1c(-c2ccc(O)cc2)sc2cc(O)ccc12 [Raloxifene] | 0 | 0 | 0 | 0 | 0 | 0 | 0 | 0 | 0 | 0 | 0 | 0 | 0 | 1.25 | 0 | 0 | 0 | 0 | 0 | 1.37 | 0 | 0 | 0 | 0 | 2.72 | 0 |
| Cn1c(=O)c(F)c(Nc2ccc(I)cc2F)c2c(=O)n(C[C@@H](O)CO)cnc21 [TAK-733] | 0 | 0 | 4.61 | 0 | 3.52 | 7.69 | 8.4 | 0 | 0 | 3.87 | 1.73 | 18.1 | 0 | 3.27 | 0 | 5.03 | 0 | 0.999 | 25.4 | 0 | 10.1 | 3.88 | 1.27 | 0 | 3.59 | 0 |
